Measurements published in the supplement of paper PMC11451515.

Assays:
Conditions in all cases: 48 h
[1] = system: NOMO1; test: AUC of viability dose-response curve (% viability x log10 dose units); higher = less sensitive
Procedure, shortened: (§1)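 Over 48 h at 37°C, leukemia cells in 1536-well plates (500 or 1000 cells/well), adapted to each medium, received library compounds in DMSO at 11 threefold doses from 47 μM to 0.79 nM. CellTiter-Glo One luminescence, normalised per plate to DMSO and cell-free wells, was fitted by a four-parameter log-logistic function of log10 dose. The area under the curve was then integrated by trapezoidal rule, after scaling curves above full viability and removing those that failed quality control.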

[2] = system: P12-Ichikawa; test: as above
Procedure, shortened: as §1

[3] = system: SEM cells; test: as above
Procedure, shortened: as §1

[4] = system: P12-Ichikawa; test: cell viability relative to DMSO control; higher = less cytotoxic
Procedure, shortened: (§2)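 NOMO1 or SEM cells were plated at 500 cells/well and P12-Ichikawa cells at 1000 cells/well in 1536-well plates (5 μl), after each leukemia line had been adapted for at least four passages in each medium. Pin dosing delivered library compounds in DMSO at 11 threefold concentrations, 47 μM to 0.79 nM. CellTiter-Glo One luminescence was read after 48 h at 37°C. Viability is reported as a per-plate percentage of DMSO wells, with cell-free wells as background.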

[5] = system: SEM cells; test: as above
Procedure, shortened: as §2

[6] = system: NOMO1; test: as above
Procedure, shortened: as §2

O=C(O)c1ccccc1C(=O)Nc1ccc(-c2ccccc2)cc1
AUC of viability dose-response curve
Conditions | [1] | [2] | [3]
HPLM + 10% dialyzed FBS | 462 | 468 | 449
RPMI 5 mM glucose + 10% FBS | 463 | 461 | 457
RPMI 5 mM glucose + 10% dialyzed FBS | 460 | 469 | 456

cell viability [%]
Conditions | [4] | [5]
HPLM + 10% dialyzed FBS, 0.000781 µM | 123 | 63.8
HPLM + 10% dialyzed FBS, 0.00234 µM | 118 | 130
HPLM + 10% dialyzed FBS, 0.00702 µM | 128 | 117
HPLM + 10% dialyzed FBS, 0.0211 µM | 124 | 124
HPLM + 10% dialyzed FBS, 0.0632 µM | 128 | 119
HPLM + 10% dialyzed FBS, 0.19 µM | 125 | 118
HPLM + 10% dialyzed FBS, 0.569 µM | 123 | 130
HPLM + 10% dialyzed FBS, 1.71 µM | 119 | 124
HPLM + 10% dialyzed FBS, 5.12 µM | 122 | 127
HPLM + 10% dialyzed FBS, 15.4 µM | 114 | 128
HPLM + 10% dialyzed FBS, 46.1 µM | 108 | 88.5
RPMI 5 mM glucose + 10% dialyzed FBS, 0.000781 µM | 119 | –
RPMI 5 mM glucose + 10% dialyzed FBS, 0.00234 µM | 123 | –
RPMI 5 mM glucose + 10% dialyzed FBS, 0.00702 µM | 124 | –
RPMI 5 mM glucose + 10% dialyzed FBS, 0.0211 µM | 124 | –
RPMI 5 mM glucose + 10% dialyzed FBS, 0.0632 µM | 138 | –
RPMI 5 mM glucose + 10% dialyzed FBS, 0.19 µM | 123 | –
RPMI 5 mM glucose + 10% dialyzed FBS, 0.569 µM | 119 | –
RPMI 5 mM glucose + 10% dialyzed FBS, 1.71 µM | 124 | –
RPMI 5 mM glucose + 10% dialyzed FBS, 5.12 µM | 117 | –
RPMI 5 mM glucose + 10% dialyzed FBS, 15.4 µM | 130 | –
RPMI 5 mM glucose + 10% dialyzed FBS, 46.1 µM | 113 | –

O=C(Cc1cccc(OC(F)(F)F)c1)Nc1ccc(CCCCc2nnc(NC(=O)Cc3ccccn3)s2)nn1
AUC of viability dose-response curve
Conditions | [1] | [2] | [3]
HPLM + 10% dialyzed FBS | 407 | 426 | 381
RPMI 5 mM glucose + 10% FBS | 388 | 386 | 276
RPMI 5 mM glucose + 10% dialyzed FBS | 394 | 387 | 277

cell viability [%]
Conditions | HPLM + 10% dialyzed FBS | RPMI 5 mM glucose + 10% FBS | RPMI 5 mM glucose + 10% dialyzed FBS
[4], 0.000781 µM | 120 | 121 | –
[4], 0.00234 µM | 118 | 113 | –
[4], 0.00702 µM | 126 | 121 | –
[4], 0.0211 µM | 112 | 115 | –
[4], 0.0632 µM | 115 | 103 | –
[4], 0.19 µM | 107 | 95.6 | –
[4], 0.569 µM | 101 | 83 | –
[4], 1.71 µM | 99.4 | 83.2 | –
[4], 5.12 µM | 103 | 71.2 | –
[4], 15.4 µM | 91.7 | 77.8 | –
[4], 46.1 µM | 95.8 | 76.5 | –
[5], 0.000781 µM | 122 | – | 141
[5], 0.00234 µM | 107 | – | 116
[5], 0.00702 µM | 119 | – | 108
[5], 0.0211 µM | 112 | – | 91.8
[5], 0.0632 µM | 107 | – | 78.8
[5], 0.19 µM | 89 | – | 70.3
[5], 0.569 µM | 86.7 | – | 70.6
[5], 1.71 µM | 87.4 | – | 60.2
[5], 5.12 µM | 79.5 | – | 56.7
[5], 15.4 µM | 72 | – | 50.7
[5], 46.1 µM | 65.1 | – | 46

C1Cc2[nH]nc(-c3nn[nH]n3)c2C1
AUC of viability dose-response curve
Conditions | [1] | [2] | [3]
HPLM + 10% dialyzed FBS | 460 | 470 | 464
RPMI 5 mM glucose + 10% FBS | 460 | 458 | 438
RPMI 5 mM glucose + 10% dialyzed FBS | 456 | 472 | 445

cell viability [%]
Conditions | HPLM + 10% dialyzed FBS | RPMI 5 mM glucose + 10% FBS | RPMI 5 mM glucose + 10% dialyzed FBS
[5], 0.000781 µM | 91.4 | 112 | 115
[5], 0.00234 µM | 101 | 122 | 129
[5], 0.00702 µM | 113 | 119 | 125
[5], 0.0211 µM | 114 | 128 | 127
[5], 0.0632 µM | 107 | 125 | 141
[5], 0.19 µM | 104 | 137 | 162
[5], 0.569 µM | 128 | 129 | 145
[5], 1.71 µM | 128 | 163 | 141
[5], 5.12 µM | 120 | 136 | 149
[5], 15.4 µM | 116 | 145 | 144
[5], 46.1 µM | 100 | 140 | 162
[6], 0.000781 µM | 128 | – | 122
[6], 0.00234 µM | 120 | – | 124
[6], 0.00702 µM | 119 | – | 131
[6], 0.0211 µM | 139 | – | 139
[6], 0.0632 µM | 149 | – | 135
[6], 0.19 µM | 145 | – | 144
[6], 0.569 µM | 131 | – | 137
[6], 1.71 µM | 143 | – | 147
[6], 5.12 µM | 140 | – | 131
[6], 15.4 µM | 145 | – | 145
[6], 46.1 µM | 142 | – | 149

Cc1cc(Nc2ncc(Cl)c(Nc3ccccc3[S+](=O)([O-])C(C)C)n2)c(OC(C)C)cc1C1CCNCC1
AUC of viability dose-response curve
Conditions | [1] | [2] | [3]
HPLM + 10% dialyzed FBS | 396 | 449 | 380
RPMI 5 mM glucose + 10% FBS | 395 | 425 | 393
RPMI 5 mM glucose + 10% dialyzed FBS | 395 | 442 | 392

cell viability [%]
Conditions | [4] | [5] | [6]
HPLM + 10% dialyzed FBS, 0.000781 µM | 111 | 115 | –
HPLM + 10% dialyzed FBS, 0.00234 µM | 113 | 114 | –
HPLM + 10% dialyzed FBS, 0.00702 µM | 110 | 119 | –
HPLM + 10% dialyzed FBS, 0.0211 µM | 117 | 123 | –
HPLM + 10% dialyzed FBS, 0.0632 µM | 112 | 120 | –
HPLM + 10% dialyzed FBS, 0.19 µM | 115 | 109 | –
HPLM + 10% dialyzed FBS, 0.569 µM | 101 | 96 | –
HPLM + 10% dialyzed FBS, 1.71 µM | 105 | 88.1 | –
HPLM + 10% dialyzed FBS, 5.12 µM | 105 | 69 | –
HPLM + 10% dialyzed FBS, 15.4 µM | 90.6 | 48.3 | –
HPLM + 10% dialyzed FBS, 46.1 µM | 30.2 | 5.59 | –
RPMI 5 mM glucose + 10% FBS, 0.000781 µM | 111 | 112 | 126
RPMI 5 mM glucose + 10% FBS, 0.00234 µM | 104 | 114 | 113
RPMI 5 mM glucose + 10% FBS, 0.00702 µM | 113 | 103 | 112
RPMI 5 mM glucose + 10% FBS, 0.0211 µM | 118 | 118 | 132
RPMI 5 mM glucose + 10% FBS, 0.0632 µM | 125 | 119 | 126
RPMI 5 mM glucose + 10% FBS, 0.19 µM | 112 | 101 | 127
RPMI 5 mM glucose + 10% FBS, 0.569 µM | 108 | 94.2 | 115
RPMI 5 mM glucose + 10% FBS, 1.71 µM | 96.1 | 101 | 97
RPMI 5 mM glucose + 10% FBS, 5.12 µM | 94.1 | 65.3 | 76.8
RPMI 5 mM glucose + 10% FBS, 15.4 µM | 69.9 | 50.5 | 54.1
RPMI 5 mM glucose + 10% FBS, 46.1 µM | 5.5 | 5.71 | 6.06
RPMI 5 mM glucose + 10% dialyzed FBS, 0.000781 µM | 117 | 125 | 127
RPMI 5 mM glucose + 10% dialyzed FBS, 0.00234 µM | 117 | 121 | 120
RPMI 5 mM glucose + 10% dialyzed FBS, 0.00702 µM | 118 | 104 | 112
RPMI 5 mM glucose + 10% dialyzed FBS, 0.0211 µM | 116 | 146 | 117
RPMI 5 mM glucose + 10% dialyzed FBS, 0.0632 µM | 115 | 142 | 122
RPMI 5 mM glucose + 10% dialyzed FBS, 0.19 µM | 117 | 121 | 109
RPMI 5 mM glucose + 10% dialyzed FBS, 0.569 µM | 111 | 110 | 105
RPMI 5 mM glucose + 10% dialyzed FBS, 1.71 µM | 113 | 100 | 114
RPMI 5 mM glucose + 10% dialyzed FBS, 5.12 µM | 107 | 80.9 | 67
RPMI 5 mM glucose + 10% dialyzed FBS, 15.4 µM | 89.3 | 52.2 | 52
RPMI 5 mM glucose + 10% dialyzed FBS, 46.1 µM | 10.5 | 6.92 | 4.03
